# Measured values: PubChem BioAssay AID588482 (NMMLSC, 2011)
# Activity calls are given as the source filed them.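 How the source made its calls: active means a percent response above zero, which rounds up to a positive score; inactive means the rest.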
# Molecular target: Beta-adrenergic receptor kinase 1 (Homo sapiens) (UniProt P25098)
# Assay: inhibition of GRK2-catalyzed rhodopsin phosphorylation – biochemical, set 2, orthogonal assay for GRK2 aptamer-displacement inhibitor project, late-stage follow-up (AID 588482)
# Conditions: 32P incorporation, SDS-PAGE, at 200 µM, active compounds read high
# Sequence of Beta-adrenergic receptor kinase 1 (Homo sapiens) (P25098 whole entry, looked up): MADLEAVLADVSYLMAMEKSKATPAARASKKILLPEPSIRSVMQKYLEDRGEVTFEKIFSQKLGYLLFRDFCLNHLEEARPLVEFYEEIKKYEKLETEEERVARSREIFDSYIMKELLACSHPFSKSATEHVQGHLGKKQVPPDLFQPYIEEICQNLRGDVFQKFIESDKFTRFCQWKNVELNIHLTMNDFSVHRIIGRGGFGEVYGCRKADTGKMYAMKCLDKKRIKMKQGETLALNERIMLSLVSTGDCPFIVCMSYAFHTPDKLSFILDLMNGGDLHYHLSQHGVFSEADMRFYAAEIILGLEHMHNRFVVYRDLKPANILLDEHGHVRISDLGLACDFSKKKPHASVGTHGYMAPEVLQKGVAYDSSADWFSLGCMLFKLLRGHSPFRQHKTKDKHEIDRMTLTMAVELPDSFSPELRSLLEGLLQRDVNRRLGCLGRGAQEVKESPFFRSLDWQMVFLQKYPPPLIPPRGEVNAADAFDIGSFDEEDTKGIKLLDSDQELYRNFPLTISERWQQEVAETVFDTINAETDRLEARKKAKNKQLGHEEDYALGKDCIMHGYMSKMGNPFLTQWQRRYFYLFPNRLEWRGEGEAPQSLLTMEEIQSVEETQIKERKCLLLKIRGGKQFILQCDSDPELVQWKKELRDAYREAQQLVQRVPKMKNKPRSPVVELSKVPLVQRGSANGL
row,Structure (SMILES),inhibition
1,Cc1cccc(CCNC(=O)CCS(=O)(=O)c2ccc(Br)cc2)c1,-50.6% (inactive)
2,CC(=O)N1CCN(Cc2nc3cc(Cl)ccc3c(=O)[nH]2)CC1,-20% (inactive)
3,O=C(O)Cc1ccc(-n2cccc2)cc1,46.5%
4,O=C(CCS(=O)(=O)c1ccc(Br)s1)Nc1ccccc1Br,-32.3% (inactive)
5,CCN(CC)c1ccc(NC(=O)CCS(=O)(=O)c2ccc(Br)cc2)c(C)c1,59.3%
6,COc1ccc(CCNC(=O)CCS(=O)(=O)c2ccc(Br)cc2)cc1OC,-29.5% (inactive)
7,Cc1ccccc1NC(=O)CCS(=O)(=O)c1ccc(Br)s1,-7.11% (inactive)
8,COc1ccc([N+](=O)[O-])cc1NC(=O)CCS(=O)(=O)c1ccc(Br)cc1,30.9%
9,CCOc1ccccc1NC(=O)CCS(=O)(=O)c1ccc(Br)cc1,0.79%
10,Cc1ccc(CCNC(=O)CCS(=O)(=O)c2ccc(Br)cc2)cc1,-30.2% (inactive)
11,C#CCSc1nc2sc3c(c2c(=O)n1C)CCC3,36.7%
12,O=C(CCS(=O)(=O)c1ccc(Br)cc1)Nc1ccc(Br)cc1F,11.4%
13,COC(=O)c1ccccc1NC(=O)CCS(=O)(=O)c1ccc(Br)s1,-18.3% (inactive)
14,O=C(CN1CCc2ccccc21)NC(=O)NCc1ccccc1,-42.4% (inactive)
15,COc1ccc(Cl)cc1NC(=O)CCS(=O)(=O)c1ccc(Br)cc1,11%
16,COC(=O)c1ccc(NC(=O)CCS(=O)(=O)c2ccc(Br)cc2)cc1,-71.8% (inactive)
17,O=C(CSc1nc2ccccc2c(=O)n1-c1ccccc1)NC(=O)CN1CCCC1=O,-54% (inactive)
18,Cc1cc2ccccc2n1CCNC(=O)C(C)Oc1ccccc1 (stereo not drawn),-3.83% (inactive)
19,NS(=O)(=O)c1ccc(CCNC(=O)CCS(=O)(=O)c2ccc(Br)cc2)cc1,-15.8% (inactive)
20,O=C(CCS(=O)(=O)c1ccc(Br)cc1)NCc1cccs1,8.45%
21,CC(CS(=O)(=O)c1ccc2c(c1)NC(=O)CS2)C(=O)NCc1ccccc1Cl (stereo not drawn),46.8%
22,CCOc1ccc(NC(=O)CCS(=O)(=O)c2ccc(Br)cc2)cc1,-28.6% (inactive)
23,COc1ccc(NC(=O)CCS(=O)(=O)c2ccc(Br)s2)cc1,-90.5% (inactive)
